What was measured:
Menin-MLL1 = molecular target: T1, Menin-MLL1 (Homo sapiens, UniProt O00255); experiment: Menin-MLL1 inhibition assay (fluorescence polarization, Menin protein + FAM-MLL peptide); type: binding; conditions: Menin (2-610) isoform 2, FAM-labelled MLL peptide, mP readout; read-out: Biochemical assay Menin-MLL1 IC50
T1 construct: Menin (2-610) isform2; purchased ChemPartner 2020111101
T1 sequence (O00255 2-610): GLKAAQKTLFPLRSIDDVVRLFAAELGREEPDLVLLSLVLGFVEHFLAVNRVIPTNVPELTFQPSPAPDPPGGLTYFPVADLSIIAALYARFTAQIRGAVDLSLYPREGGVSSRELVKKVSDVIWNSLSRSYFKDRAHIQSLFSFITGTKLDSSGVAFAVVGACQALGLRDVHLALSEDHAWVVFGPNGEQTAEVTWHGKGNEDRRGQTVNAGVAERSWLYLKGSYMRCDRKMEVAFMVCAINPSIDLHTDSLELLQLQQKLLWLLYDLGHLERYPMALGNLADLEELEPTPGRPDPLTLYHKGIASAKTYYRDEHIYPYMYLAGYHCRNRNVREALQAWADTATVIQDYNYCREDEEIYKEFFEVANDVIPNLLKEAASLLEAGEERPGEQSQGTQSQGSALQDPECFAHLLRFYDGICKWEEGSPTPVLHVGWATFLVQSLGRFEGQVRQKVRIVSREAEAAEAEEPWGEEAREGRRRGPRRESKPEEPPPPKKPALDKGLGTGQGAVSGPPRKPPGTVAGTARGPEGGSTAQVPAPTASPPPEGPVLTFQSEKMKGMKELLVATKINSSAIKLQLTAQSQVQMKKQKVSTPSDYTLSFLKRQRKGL
Experimental: 1× assay bu9ffer (Tris 7.5 50 mM, NaCl 50 mM, DTT 1 mM, Tween-20 0.01%) was prepared and test compounds solution (10 mM in DMSO, Sigma, Cat. No. 34869) were transferred to assay plate (384-well plate, Perkin Elmer, Cat. No. 6007279) by Echo. The final fraction of DMSO is 1%. 20 nM of Menin protein (Menin (2-610) isform2, ChemPartner, Cat. No. 2020111101) in 1× assay buffer was added to prepare 2× enzyme solution. Then 10 nM of MLL-peptide (Ac-SRWRFPARPGTGRR-Ahx-Ahx-K(FAM)-NH2, GL Biochem (Shanghai)), Cat. No. 833831/202009220104) in 1× assay buffer was added to prepare 2× substrate solution. 10 μL of 2× enzyme solution was transferred to assay plate or 10 μL of 1× assay buffer for low control group. 10 μL of 2× substrate solution was added to each well to start reaction. mP data on Envision (Ex480/Em535(s), Em535(p)) was collected.
Compound potencies were determined by first calculating % inhibition at each compound concentration according to equation 1:
Inhibition %=(Max−Signal)/(Max−Min)*100 (Equation 1)
Y=Bottom+(Top-Bottom)/(1+(IC50/X)[…]), where Y is % inhibition and X is compound concentration (Equation 2)

MV-4-11 cells = experiment: Cell proliferation assay (CellTiter-Glo), MV-4-11; type: cell-based, human; conditions: Homo sapiens, MV4-11, 96 h; MV-4-11 (MLL-AF4), 4 days incubation; read-out: Cell antiproliferation assay MV-4-11 IC50
Experimental: The antiproliferative activity of test compounds was assessed in human leukemia cell lines. The cell line MV4-11, MOLM13 and OCI-AML3, which expresses the MLL fusion protein MLL-AF4, MLL-AF9 and carry the NPM1c gene mutation, respectively, were tested. HL-60 was used as a control cell line containing two MLL wildtype alleles in order to exclude compounds that display general cytotoxic effect. MV4-11 cells were cultured in IMDM supplemented with 10% FBS, MOLM13 and OCI-AML3 cells were cultured in RPMI1640 supplemented with 20% FBS, and HL-60 cells were cultured in IMDM supplemented with 20% FBS. Corresponding cells (MV4-11, MOLM13, OCI-AML3 or HL-60 cell line) were seeded in 100 uL medium per well in 96-well plate (white wall with clear bottom, tissue culture treated, Corning, Cat. No. CLS3903; Lot.No. 30419025). Plates were placed in the CO2 incubator overnight. Compounds solution (2 mM starting, 4-fold serial dilution) were prepared and added to the wells containing 100 μL of the culture medium with HPD300 according to the plate map and centrifuge at 1000 rpm for 1 minutes (200-fold dilution totally). MV4-11, MOLM13, OCI-AML3 and HL-60 cells were incubated with the compounds for 4, 12, 5 and 4 days, respectively, under 5% CO2 at 37° C., respectively. 100 μL of CellTiter-Glo reagent (Promega, Cat. No. G7573, Lot. No. 0000416710) was added to the assay plate by Multidrop Combi instrument, contents were mixed for 10 minutes on an orbital shaker to induce cell lysis. After incubation at room temperature for 10 mins, clear bottom with white back seal was pasted and luminescence with Envision was read.

| Structure (SMILES) | IC50 (Menin-MLL1) | IC50 (MV-4-11 cells) |
| --- | --- | --- |
| CCN(C(=O)c1cc(F)ccc1Oc1cncnc1N1CC2(CCN(C(=O)[C@H]3NCC[C@H]3O)CC2)C1)C(C)C [Example 7] | 7.5 nM | 220 nM |
| CCN(C(=O)c1cc(F)ccc1Oc1cncnc1N1CC2(CCN(C(=O)[C@H]3NCc4[nH]ncc43)CC2)C1)C(C)C [Example 54] | 4.3 nM | 582 nM |
| CC(C)n1ncc(Cl)c1-c1cc(F)ccc1Oc1nncnc1N1CC2(CCN(C(=O)[C@@H]3C[C@@H](F)CN3)CC2)C1 [Example 75] | 5.8 nM | 40.6 nM |
| CCN(C(=O)c1cc(F)ccc1Oc1cncnc1N1CC2(CCN(C(=O)[C@H]3NCc4c3cnn4Cc3ccccc3)CC2)C1)C(C)C [Example 44] | 3.9 nM | 30.7 nM |
| CCN(C(=O)c1cc(F)ccc1Oc1cncnc1N1CC2(CCN(C(=O)[C@@H]3C[C@]4(CN3)CC4(F)F)CC2)C1)C(C)C [Example 23] | 8.7 nM | 127 nM |
| CCN(C(=O)c1cc(F)ccc1Oc1cncnc1N1CC2(CCN(C(=O)[C@@H]3CCCN3)CC2)C1)C(C)C [Example 21] | 5.8 nM | 42.2 nM |
| CCN(C(=O)c1cc(F)ccc1Oc1cncnc1N1CC2(CCN(C(=O)[C@@H]3C[C@@H](F)CN3)CC2)C1)C1CC1 [Example 20] | 10.1 nM | 267 nM |
| [2H]c1c(F)cc(C(=O)N(CC)C(C)C)c(Oc2cncnc2N2CC3(CCN(C(=O)[C@@H]4C[C@@H](F)CN4)CC3)C2)c1[2H] [Example 31] | 6.7 nM | 41 nM |
| CCN(C(=O)c1cc(F)ccc1Oc1cncnc1N1CC2(CCN(C(=O)[C@@H]3C[C@H](NS(C)(=O)=O)CN3)CC2)C1)C(C)C [Example 16] | 22.3 nM | – |
| CCN(C(=O)c1cc(F)ccc1Oc1nncnc1N1CC2(CCN(C(=O)[C@@H]3NCCC3(C)C)CC2)C1)C(C)C [Example 66] | 11 nM | 308 nM |
| CCN(C(=O)c1cc(F)ccc1Oc1cncnc1N1CC2(CCN(C(=O)[C@@H]3CSCN3)CC2)C1)C(C)C [Example 52] | 21 nM | – |
| CCN(C(=O)c1cc(F)ccc1Oc1cncnc1N1CC2(CCN(C(=O)[C@@H]3C[C@@H](C#N)CN3)CC2)C1)C(C)C [Example 27, 2-((4-(7-((2S,4R)-4-cyanopyrrolidine-2-carbonyl)-2,7-diazaspiro[3.5]nonan-2-yl)pyrimidin-5-yl)oxy)-N-ethyl-5-fluoro-N-isopropylbenzamide] | 18.4 nM | 420 nM |
| CCN(C(=O)c1cc(F)ccc1Oc1cncnc1N1CC2(CCN(C(=O)[C@@H]3C[C@@H]4C[C@@H]4N3)CC2)C1)C(C)C [Example 30] | 4.7 nM | 33.8 nM |
| CCN(C(=O)c1cc(F)ccc1Oc1cncnc1N1CC2(CCN(C(=O)[C@@H]3COCCN3)CC2)C1)C(C)C [Example 26] | 10.2 nM | 647 nM |
| CCN(C(=O)c1cc(F)ccc1Oc1nncnc1N1CC2(CCN(C(=O)[C@H]3NCC[C@@H]3C(F)F)CC2)C1)C(C)C [Example 99a, 2-((5-(7-((2S,3S)-3-(difluoromethyl)pyrrolidine-2-carbonyl)-2,7-diazaspiro[3.5]nonan-2-yl)-1,2,4-triazin-6-yl)oxy)-N-ethyl-5-fluoro-N-isopropylbenzamide] | 5.4 nM | 46.4 nM |
| CCN(C(=O)c1cc(F)ccc1Oc1cncnc1N1CC2(CCN(C(=O)[C@@H]3C[C@@]4(CN3)CC4(F)F)CC2)C1)C(C)C [Example 24] | 8 nM | 102 nM |
| CCN(C(=O)c1cc(F)ccc1Oc1cncnc1N1CC2(CCN(C(=O)[C@@H]3C[C@@H](O)CN3)CC2)C1)C(C)C [Example 5] | 7 nM | 440 nM |
| CO[C@H]1CCN[C@@H]1C(=O)N1CCC2(CC1)CN(c1ncnnc1Oc1ccc(F)cc1-c1ccc(C#N)cc1C1CC1)C2 [Example 96] | 4 nM | 5.6 nM |

| Structure (SMILES) | IC50 (Menin-MLL1) | IC50 (MV-4-11 cells) |
| --- | --- | --- |
| CCN(C(=O)c1cc(F)ccc1Oc1cncnc1N1CC2(CCN(C(=O)[C@@H]3C[C@](F)(CF)CN3)CC2)C1)C(C)C [Example 12] | 4.7 nM | 68.2 nM |
| CCN(C(=O)c1cc(F)ccc1Oc1cncnc1N1CCC2(CC1)CN(C(=O)[C@@H]1C[C@@H](F)CN1)C2)C(C)C [Example 46] | 7.7 nM | 494 nM |
| COCCN(C(=O)c1cc(F)ccc1Oc1cncnc1N1CC2(CCN(C(=O)[C@@H]3C[C@@H](F)CN3)CC2)C1)C(C)C [Example 50] | 4.4 nM | 120 nM |
| CCN(C(=O)c1cc(F)ccc1Oc1cncnc1N1CC2(CCN(C(=O)[C@@H]3C[C@@H](NS(C)(=O)=O)CN3)CC2)C1)C(C)C [Example 18] | 13.5 nM | – |
| O=C([C@H]1NC[C@@H]2CCC[C@@H]21)N1CCC2(CC1)CN(c1ncnnc1Oc1ccc(F)cc1-c1cccnc1C1CC1)C2 [Example 103] | 4.4 nM | 1.5 nM |
| CC(C)n1ncnc1-c1cc(F)ccc1Oc1cncnc1N1CC2(CCN(C(=O)[C@@H]3C[C@@H](F)CN3)CC2)C1 [Example 43] | 4.8 nM | 170 nM |
| O=C([C@@H]1C[C@@H](F)CN1)N1CCC2(CC1)CN(c1ncncc1Oc1ccc(F)cc1C(=O)N1C3CCC1COC3)C2 [Example 59] | 5.5 nM | 159 nM |
| CCN(C(=O)c1cc(F)ccc1Oc1nncnc1N1CC2(CCN(C(=O)[C@H]3NC[C@H]4CC(F)(F)C[C@H]43)CC2)C1)C(C)C (single isomer, unassigned) [Example 98a] | 5.4 nM | 333 nM |
| CCN(C(=O)c1ccccc1Oc1cncnc1N1CC2(CCN(C(=O)[C@@H]3C[C@@H](F)CN3)CC2)C1)C(C)C [Example 36] | 4 nM | 66 nM |
| CC(C)N(C(=O)c1cc(F)ccc1Oc1nncnc1N1CC2(CCN(C(=O)[C@H]3NCC[C@H]3C)CC2)C1)C(C)C [Example 76] | 3.7 nM | 16.7 nM |
| CC(C)N(C(=O)c1cc(F)ccc1Oc1nncnc1N1CC2(CCN(C(=O)[C@@H]3C[C@@H](C)CN3)CC2)C1)C(C)C [Example 73] | 4.1 nM | 22 nM |
| CCN(C(=O)c1cc(F)ccc1Oc1cncnc1N1CC2(CCN(C(=O)[C@@H]3C[C@]4(COC)CC4N3)CC2)C1)C(C)C (some centres unmarked) [Example 13] | 16.7 nM | – |
| CCN(C(=O)c1cc(F)ccc1Oc1cncnc1N1CC2(CCN(C(=O)[C@@H]3C[C@@H](S(C)(=O)=O)CN3)CC2)C1)C(C)C [Example 15] | 55.2 nM | – |
| CO[C@H]1CCN[C@@H]1C(=O)N1CCC2(CC1)CN(c1ncnnc1Oc1ccc(F)cc1-c1ccc(C#N)nc1C1CC1)C2 [Example 101] | 6 nM | 6.8 nM |
| CCN(C(=O)c1cc(F)ccc1Oc1cncnc1N1CC2(CCN(C(=O)[C@@H]3CC(C)(O)CN3)CC2)C1)C(C)C (some centres unmarked) [Example 14] | 9.2 nM | – |
| CCN(C(=O)c1cc(F)ccc1Oc1nncnc1N1CC2(CCN(C(=O)C3NC[C@H]4CC(F)(F)C[C@@H]34)CC2)C1)C(C)C (single isomer, unassigned) [Example 98c] | 44.5 nM | – |
| CCN(C(=O)c1cc(F)ccc1Oc1cncnc1N1CC2(CCN(C(=O)[C@@H]3C[C@@H](F)CN3)C2)C1)C(C)C [Example 37] | 15.4 nM | – |

Reference: patent US20240317748A1, “CARBONYL SUBSTITUTED DIAZASPIRO COMPOUNDS AND ITS USE” (BIONOVA PHARMACEUTICALS (SHANGHAI) LIMITED, priority 2021, published 2024)
